Data from patent publication US10179914B2, “CDC25A inhibitor for the treatment of drug resistant cancer or for the prevention of tumor relapse” (INSERM (INSTITUT NATIONAL DE LA SANTÉ ET DE LA RECHERCHE …, priority 2014, dated 2019).

How the values were obtained:
Format in all cases: cell-based, human
[1] = system: primary AML cells expressing wild-type FLT3; test: Clonogenic assay, FLT3 wild-type primary AML cells; conditions: 100 and 200 nM, day 7
Description: (§1) (c) Primary cells from patients were cultured in semi-solid medium to estimate their clonogenic potential as described in the Methods section, in the presence or the absence of IRC-083864 (100 and 200 nM). 6 FLT3-ITD positive (upper panel) and 4 FLT3-wild type (lower panel) AML primary samples were used for these experiments. Leukemic colonies were scored under an inverted microscope at day 7.
(§2) Patient samples. Patient AML samples were obtained after informed consent in accordance with the Declaration of Helsinki and stored at the HIMIP collection. According to the French law, HIMIP collection has been declared to the Ministry of Higher Education and Research (DC 2008-307 collection 1) and obtained a transfer agreement (AC 2008-129) after approbation by ethical committees (Comité de Protection des Personnes Sud-Ouest et Outremer II and APHP ethical committee). Clinical and biological annotations of the samples have been declared to the CNIL (Comité National Informatique et Libertés i.e. Data processing and Liberties National Committee). Frozen cells were thawed in IMDM medium with 20% FBS and immediately processed for treatment. All patients were diagnosed at the Department of Hematology of Toulouse University Hospital.
(§3) Clonogenic assay. […] Leukemic colonies were then scored under an inverted microscope.

[2] = system: MOLM-14 cells (FLT3-ITD positive); test: Cell proliferation, trypan blue counting, MOLM-14; conditions: 200 nM
Description: Cells were harvested each day and counted after trypan blue staining. The graphs represent three independent experiments.
Cell lines and reagents. […] Concerning MOLM-14 cell line, the presence of a monoallelic 21 bp FLT3-ITD mutation and of an MLL-containing ins(11; 9)(q23;p22p23) were verified (Hematology laboratory of Toulouse University Hospital, Prof E. Delabesse and Dr I. Luquet). KG1 and HL-60 (ACC-14 and ACC-3, DSMZ) cell lines were grown in Iscove's Modified Dulbecco's Medium (IMDM, Gibco) plus 20% FBS. All cells were grown in the presence of 100 units/ml of penicillin and streptomycin (Invitrogen) at 37° C. and 5% CO2.
siRNA. The MV4-11 cell line was transfected with the Amaxa nucleofection technology (Lonza, Koeln, Germany). […] Twenty-four or forty-eight hours after transfection, cells were counted (trypan blue staining), and western blotting was performed.

[3] = system: FLT3-ITD positive primary AML cells; test: Clonogenic assay, FLT3-ITD positive primary AML cells; conditions: 100 and 200 nM, day 7, semi-solid 5637 conditioned medium
Description: as §1, §2, §3

[4] = system: FLT3-wild type primary AML samples; test: Differentiation of FLT3 wild-type primary AML samples; conditions: same conditions
Description: as §2
Co-cultures. […]
Flow cytometry. Apoptotic cells were detected with Annexin V-FITC detection kit from BD Pharmingen (San Diego, Calif., USA) according to the manufacturer instructions. […] Data were collected on a LSRII or a LSRFortessa cytometer (BD Biosciences), and analyzed with FlowJo software. […]

[5] = system: HL-60 cells (FLT3 wild type); test: Cell proliferation, trypan blue counting, HL-60
Description: (a) MV4-11 and MOLM-14 FLT3-ITD positive cells, KG1, HL-60 and TF-1 FLT3 wild type cells, and K562 FLT3 negative cells were cultured in the presence of the CDC25 inhibitor IRC-083864 (200 nM). Cells were harvested each day and counted after trypan blue coloration. The graph represents three independent experiments.
Cell lines and reagents. Human acute myeloid leukemia cell lines MOLM-14 (Matsuo Y et al, Leukemia 1997) (kindly provided by Martin Carroll, University of Pennsylvania, Philadelphia, Pa., USA) MV4-11, K562 (ACC-102 and ACC-10, DSMZ, Braunschweig, Germany) and FLT3-ITD-expressing murine BaF3 cells were cultured in RPMI 1640 medium (Gibco, Life Technologies, Carlsbad, Calif., USA) supplemented with 10% fetal bovine serum (Sigma, Saint Louis, Calif., USA). TF-1 (ATCC-CRL2003) cells were cultured in RPMI 1640 medium with 10% fetal bovine serum and GM-CSF 2 ng/ml. Concerning MOLM-14 cell line, the presence of a monoallelic 21 bp FLT3-ITD mutation and of an MLL-containing ins(11; 9)(q23;p22p23) were verified (Hematology laboratory of Toulouse University Hospital, Prof E. Delabesse and Dr I. Luquet). KG1 and HL-60 (ACC-14 and ACC-3, DSMZ) cell lines were grown in Iscove's Modified Dulbecco's Medium (IMDM, Gibco) plus 20% FBS. All cells were grown in the presence of 100 units/ml of penicillin and streptomycin (Invitrogen) at 37° C. and 5% CO2.

With `Cc1nc2c(s1)C(=O)C=C(NCCCN(C)CCCNC1=CC(=O)c3nc(-c4cc(F)ccc4F)oc3C1=O)C2=O` [IRC-083864] the “clonogenic potential of primary cells expressing wild-type FLT3” value [1] was “not sensitive”, the “proliferation of MOLM-14” value [2] was “robust inhibition” and the “clonogenic potential of FLT3-ITD positive primary cells” value [3] was “significantly reduced”. For the same molecule, the “differentiation of FLT3-wild type samples” value [4] was “no evidence of differentiation”, the “proliferation of HL-60” value ([5]; 200 nM) was “did not decrease” and the “proliferation of HL60 upon stimulation by FLT3 ligand” value ([5]; FLT3 ligand stimulation) was “had no effect”.
